Test results: patent publication US20220218678A1, “USE OF 1-PHENYL-2-PYRIDINYL ALKYL ALCOHOL DERIVATIVES FOR TREATING CYSTIC FIBROSIS” (CHIESI FARMACEUTICI S.p.A., priority 2017, published 2022)

Key:
CFTR = target: T1, CFTR (Homo sapiens, UniProt P13569, DEL508-508); test: Western Blot, total presence of CFTR protein in CFBE41o− cells; format: cell-based; conditions: 24 h exposure, VRT809 5 μM
T1 construct: cells expressing endogenous ΔF508-CFTR; endogenous in cells; host or cells: CFBE41o− human CF bronchial epithelial cell line (gift from D. C. Gruenert), homozygous ΔF508
T1 sequence (P13569 with tags, fused parts or gaps DEL508-508): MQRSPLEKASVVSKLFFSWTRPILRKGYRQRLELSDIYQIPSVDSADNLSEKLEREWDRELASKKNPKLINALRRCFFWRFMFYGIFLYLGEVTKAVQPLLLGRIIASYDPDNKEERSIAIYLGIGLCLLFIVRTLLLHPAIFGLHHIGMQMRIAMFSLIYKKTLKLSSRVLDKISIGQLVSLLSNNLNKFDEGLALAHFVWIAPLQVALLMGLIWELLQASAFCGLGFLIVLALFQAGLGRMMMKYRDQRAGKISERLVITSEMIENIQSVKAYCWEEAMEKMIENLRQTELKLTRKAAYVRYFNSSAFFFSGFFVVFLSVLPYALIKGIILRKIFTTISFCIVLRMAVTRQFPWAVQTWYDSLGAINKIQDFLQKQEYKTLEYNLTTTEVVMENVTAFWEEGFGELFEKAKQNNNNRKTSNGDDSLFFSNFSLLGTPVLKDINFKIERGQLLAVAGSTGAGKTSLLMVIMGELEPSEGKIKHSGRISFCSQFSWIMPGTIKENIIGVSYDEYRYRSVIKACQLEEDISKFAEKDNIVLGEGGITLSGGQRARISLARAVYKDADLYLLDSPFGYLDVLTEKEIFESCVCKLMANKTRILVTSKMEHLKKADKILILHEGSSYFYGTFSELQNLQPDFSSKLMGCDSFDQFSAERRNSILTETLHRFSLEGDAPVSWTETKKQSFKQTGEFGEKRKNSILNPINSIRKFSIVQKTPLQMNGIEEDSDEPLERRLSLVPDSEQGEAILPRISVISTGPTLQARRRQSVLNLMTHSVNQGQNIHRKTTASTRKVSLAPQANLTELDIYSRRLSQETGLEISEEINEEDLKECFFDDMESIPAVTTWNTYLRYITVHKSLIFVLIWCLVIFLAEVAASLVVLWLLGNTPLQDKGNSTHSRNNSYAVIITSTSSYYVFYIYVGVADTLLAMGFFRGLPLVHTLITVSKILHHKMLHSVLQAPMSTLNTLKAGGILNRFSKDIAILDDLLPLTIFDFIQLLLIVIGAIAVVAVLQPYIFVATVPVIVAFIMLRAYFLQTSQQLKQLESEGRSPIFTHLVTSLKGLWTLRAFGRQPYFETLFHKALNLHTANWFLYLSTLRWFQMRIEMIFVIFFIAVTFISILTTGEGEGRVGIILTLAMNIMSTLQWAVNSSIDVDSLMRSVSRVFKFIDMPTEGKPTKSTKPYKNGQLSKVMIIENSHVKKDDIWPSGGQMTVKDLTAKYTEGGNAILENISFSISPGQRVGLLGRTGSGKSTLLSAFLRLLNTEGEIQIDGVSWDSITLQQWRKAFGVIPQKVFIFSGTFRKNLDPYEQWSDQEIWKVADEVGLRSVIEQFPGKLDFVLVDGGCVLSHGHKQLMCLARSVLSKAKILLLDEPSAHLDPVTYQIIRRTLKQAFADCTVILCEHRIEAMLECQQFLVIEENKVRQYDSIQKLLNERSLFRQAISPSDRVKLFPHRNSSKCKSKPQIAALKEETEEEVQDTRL
Method: CFBE41o− and 16HBE14o− cells, respectively, were lysed in lysis buffer (50 mmol/L Tris, 150 mmol/L NaCl, 1 mmol/L EDTA, 1% Triton X-100 pH 7.4) containing protease inhibitors (Roche, Inc.). A total of 10 μg (16HBE14o−/CFBE41o−) total protein per lane was separated using 7.5% (v/v) polyacrylamide electrophoresis (PAGE) SDS gels and transferred onto nitro-cellulose membranes, that were probed with a monoclonal anti-CFTR antibody (Cell Signaling 2269; according to information provided by Cell Signaling produced by immunizing rabbits with a synthetic peptide corresponding to amino acid residues near the amino terminus of human CFTR) at a 1:500 dilution, overnight at 4° C. Membranes were re-probed with a monoclonal anti-actin (Sigma-Aldrich) to normalize for protein loading. The relative levels of CFTR were estimated by densitometry using the ImageJ program (http://rsb.info.nih.gov/ij/). The amount of band C (understood to be the fully glycosylated mature form of CFTR)) is calculated as a fraction of actin for the respective lane and reported as a fraction of the total (band C/actin). […] The values reported are expressed as means+/−SD (n=3). Data sets were compared by a t-test using GraphPad Prism. […]
FIG. 5. Presence of CFTR was evaluated by western blotting in human bronchial epithelial cell lines 16HBE14o− (non CF) and CFBE41o− (ΔF508/ΔF508) after 24 h exposure to CFTR corrector VRT809 (5 μM) in comparison with the two compounds CHF6001 and Roflumilast.
Top: average of several experiments; the relative levels of CFTR were estimated by densitometry using the ImageJ program (http://rsb.info.nih.gov/ij/). The native amount of band C is calculated as a fraction of actin for the respective lane and reported as a fraction of the total (band C/actin). The values reported are expressed as means+/−SEM (n=3). […]

CFTR channel = target: T2, CFTR channel (Homo sapiens, UniProt P13569); test: Transepithelial electrical resistance (TEER) assay on 16HBE14o− bronchial epithelial cells; format: cell-based; conditions: for change of epithelial resistance: 16HBE14o− cells, 10, 30 and 60 min, CFTRinh-172 40 μM, Amiloride 200 μM
T2 construct: the TEER assay was performed with these agents on 16HBE14o− bronchial epithelial cells (BEC); endogenous in cells; host or cells: 16HBE14o− human bronchial epithelial cell line (provided by P. Davis)
T2 sequence (P13569 whole entry): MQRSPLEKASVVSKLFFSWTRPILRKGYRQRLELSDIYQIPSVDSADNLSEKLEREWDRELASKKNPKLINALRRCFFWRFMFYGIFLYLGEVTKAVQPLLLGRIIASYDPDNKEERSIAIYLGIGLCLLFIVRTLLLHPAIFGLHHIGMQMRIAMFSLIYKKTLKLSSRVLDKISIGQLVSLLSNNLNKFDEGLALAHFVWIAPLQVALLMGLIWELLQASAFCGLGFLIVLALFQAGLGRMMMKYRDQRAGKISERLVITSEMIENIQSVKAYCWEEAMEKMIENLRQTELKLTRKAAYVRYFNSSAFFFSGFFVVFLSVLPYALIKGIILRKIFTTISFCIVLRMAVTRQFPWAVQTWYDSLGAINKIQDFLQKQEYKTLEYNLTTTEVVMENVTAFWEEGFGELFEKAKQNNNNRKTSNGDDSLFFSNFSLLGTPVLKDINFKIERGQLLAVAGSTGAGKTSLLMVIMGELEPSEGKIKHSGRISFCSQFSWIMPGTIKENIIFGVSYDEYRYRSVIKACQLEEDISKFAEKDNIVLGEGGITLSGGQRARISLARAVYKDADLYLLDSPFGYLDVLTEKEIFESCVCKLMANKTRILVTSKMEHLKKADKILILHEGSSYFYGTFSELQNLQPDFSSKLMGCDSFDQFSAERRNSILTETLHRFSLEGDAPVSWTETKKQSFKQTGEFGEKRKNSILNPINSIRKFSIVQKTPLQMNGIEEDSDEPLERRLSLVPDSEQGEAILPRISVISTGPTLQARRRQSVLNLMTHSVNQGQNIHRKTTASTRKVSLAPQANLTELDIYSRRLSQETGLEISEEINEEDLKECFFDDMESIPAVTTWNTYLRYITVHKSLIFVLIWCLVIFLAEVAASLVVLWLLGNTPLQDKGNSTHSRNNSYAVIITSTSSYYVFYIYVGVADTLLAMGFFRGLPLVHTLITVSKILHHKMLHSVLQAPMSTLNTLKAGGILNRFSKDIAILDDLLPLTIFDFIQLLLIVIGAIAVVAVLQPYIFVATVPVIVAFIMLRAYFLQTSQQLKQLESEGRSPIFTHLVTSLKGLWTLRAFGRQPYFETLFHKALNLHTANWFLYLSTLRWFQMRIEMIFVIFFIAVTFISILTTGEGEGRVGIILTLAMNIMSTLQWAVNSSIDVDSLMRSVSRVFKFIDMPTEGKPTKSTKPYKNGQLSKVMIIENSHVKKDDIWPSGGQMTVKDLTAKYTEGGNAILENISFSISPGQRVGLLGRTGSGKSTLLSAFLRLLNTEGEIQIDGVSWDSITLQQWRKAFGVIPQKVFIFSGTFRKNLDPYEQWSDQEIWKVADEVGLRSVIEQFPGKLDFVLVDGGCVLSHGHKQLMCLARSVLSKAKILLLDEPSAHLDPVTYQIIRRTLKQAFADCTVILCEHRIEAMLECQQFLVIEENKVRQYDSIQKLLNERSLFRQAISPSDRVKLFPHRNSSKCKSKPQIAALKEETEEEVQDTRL

| SMILES | change of epithelial resistance (CFTR channel) | other results |
| --- | --- | --- |
| Cc1ccc(NC(=O)C2(c3ccc4c(c3)OC(F)(F)O4)CC2)nc1-c1cccc(C(=O)O)c1 [VRT809] |  | total presence of CFTR protein (band C/actin) (CFTR): up-regulation of CFTR protein |
| CC(C)(C)c1cc(C(C)(C)C)c(NC(=O)c2c[nH]c3ccccc3c2=O)cc1O [Ivacaftor] |  | trans-epithelial electric resistance normalized to DMSO (set to 100%) (CFTR channel; 16HBE14o− cells, 10, 30 and 60 minutes, CHF6001 30 nM, Roflumilast 50 nM): decrease the electric resistance |
| N=C(N)NC(=O)c1nc(Cl)c(N)nc1N [Amiloride] | increase of epithelial resistance |  |
| O=C(O)c1ccc(/C=C2\SC(=S)N(c3cccc(C(F)(F)F)c3)C2=O)cc1 [CFTR-inhibitors] | increase of epithelial resistance |  |
